Drawing on PubChem BioAssay (NCI), this text covers TGI for 17 molecules.

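All cell lines were grown in 96-well plates and treated with compound for 48 hours. TGI: concentration producing complete growth inhibition.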 Where only a bound is given, the exact number is not on record here.

Among the test systems are SW-620 colon; OVCAR-3 ovarian; KM12 colon; LOX IMVI melanoma; HT29 colon; HOP-92 NSCLC; OVCAR-8 ovarian; SF-295 CNS; NCI-H23 lung.
Holding throughout (assay): growth of human tumour cells (NCI), 48 h

Take `O=c1cnn2c(n1)sc1ccc3ccccc3c12`: the TGI in the experiment with SW-620 colon, in the experiment on OVCAR-3 ovarian, with KM12 colon, in the experiment on LOX IMVI melanoma, in the experiment on HT29 colon and in the experiment with HOP-92 NSCLC was more than 100 µM each time. Also, the TGI in the experiment on OVCAR-8 ovarian, with SF-295 CNS and in the experiment with NCI-H23 lung was more than 100 µM throughout.
Turning to `COc1ccc2c(c1)OC[C@@H]1c3cc4c(cc3O[C@H]21)OCO4`, the TGI with SW-620 colon, in the experiment with OVCAR-3 ovarian, with KM12 colon, with LOX IMVI melanoma, in the experiment on HT29 colon and in the experiment on HOP-92 NSCLC was more than 100 µM each time. The TGI with OVCAR-8 ovarian, in the experiment on SF-295 CNS and in the experiment on NCI-H23 lung was more than 100 µM throughout.
In the case of `O=C(NO)C12C3C4C1C1C2C3C41C(=O)NO` (centres undefined), the TGI in the experiment with OVCAR-3 ovarian, in the experiment on KM12 colon, in the experiment with LOX IMVI melanoma, in the experiment with HT29 colon, with OVCAR-8 ovarian and in the experiment with SF-295 CNS was more than 100 µM each time.
`COC(=O)[C@]1(C)CCC[C@@]2(C)C1CCC1=CC3(C(C)C)CCC12OO3` (some centres undefined): the TGI with SW-620 colon, with OVCAR-3 ovarian, with KM12 colon, with LOX IMVI melanoma, with HT29 colon and in the experiment on OVCAR-8 ovarian was more than 100 µM in each case. The TGI in the experiment with SF-295 CNS and with NCI-H23 lung was more than 100 µM each time.
Consider `CC(C)=CC(=O)Cc1nc2cc(C)c(C)cc2[nH]c1=O`, for which the TGI with SW-620 colon is more than 100 µM; with OVCAR-3 ovarian it was more than 100 µM; in the experiment on KM12 colon it was more than 100 µM; in the experiment on LOX IMVI melanoma, more than 100 µM; with HT29 colon it was more than 100 µM; in the experiment with HOP-92 NSCLC, 99.7 µM. Besides, the TGI with SF-295 CNS and with NCI-H23 lung was more than 100 µM each time.
For `Cc1ccccc1CN1CC=c2ccccc2=N1`, the TGI in the experiment on SW-620 colon, in the experiment with OVCAR-3 ovarian, with KM12 colon, in the experiment on LOX IMVI melanoma, in the experiment with HT29 colon and with HOP-92 NSCLC was more than 100 µM each time. The TGI in the experiment on OVCAR-8 ovarian, with SF-295 CNS and in the experiment on NCI-H23 lung was more than 100 µM each time.
For `O=C(Nc1nc2ncn(CC(COc3ccccc3)OC(=O)c3ccccc3)c2c(=O)[nH]1)c1ccccc1` (centres undefined), the TGI in the experiment on SW-620 colon, in the experiment with OVCAR-3 ovarian, with KM12 colon, in the experiment on LOX IMVI melanoma, with HT29 colon and in the experiment on OVCAR-8 ovarian was more than 100 µM throughout. The same molecule displayed a TGI in the experiment with SF-295 CNS of more than 100 µM.
Regarding `OCC12C3C4C1C1C2C3C41CO` (centres undefined), the TGI in the experiment with SW-620 colon, in the experiment on OVCAR-3 ovarian, in the experiment on LOX IMVI melanoma, with HT29 colon, with HOP-92 NSCLC and in the experiment with OVCAR-8 ovarian was more than 100 µM each time. For the same molecule, the TGI in the experiment with SF-295 CNS and with NCI-H23 lung was more than 100 µM throughout.
Consider `CCCCCCCC/C=C\CCCCCCCC(=O)NCCN(CCN)C(=O)CCCCCCC/C=C\CCCCCCCC`, for which the TGI with SW-620 colon, in the experiment with OVCAR-3 ovarian, in the experiment on LOX IMVI melanoma, in the experiment on HT29 colon, in the experiment with HOP-92 NSCLC and in the experiment on OVCAR-8 ovarian was more than 100 µM each time. In addition, the TGI in the experiment with SF-295 CNS and in the experiment with NCI-H23 lung was more than 100 µM in each case.
As to `CC(C)OP(=O)(OC(C)C)C(=Nc1ccccc1)NNc1ccc([N+](=O)[O-])cc1`, the TGI was more than 100 µM in the experiment on SW-620 colon; more than 100 µM in the experiment with OVCAR-3 ovarian; 43.6 µM in the experiment with KM12 colon; more than 100 µM in the experiment on LOX IMVI melanoma; 40.2 µM with HOP-92 NSCLC; more than 100 µM with OVCAR-8 ovarian. The TGI with NCI-H23 lung is more than 100 µM.
For `Nc1c(-c2ccc(Cl)cc2Cl)[n+]([O-])c2ccccc2[n+]1[O-]`, the TGI in the experiment on SW-620 colon, with OVCAR-3 ovarian, with KM12 colon, in the experiment with LOX IMVI melanoma, in the experiment with HT29 colon and with OVCAR-8 ovarian was more than 100 µM in each case. In addition, the TGI in the experiment on SF-295 CNS and with NCI-H23 lung was more than 100 µM in each case.
For the molecule `CC(C)(C)C(=O)C1CC(=O)c2ccccc2C1=O` (centres undefined), the TGI with SW-620 colon was more than 100 µM; with OVCAR-3 ovarian it was 71.4 µM; with KM12 colon, more than 100 µM; with LOX IMVI melanoma it was more than 100 µM; in the experiment with HOP-92 NSCLC it was 66.5 µM; in the experiment on OVCAR-8 ovarian it was more than 100 µM. Further, the figures for the TGI in the experiment with SF-295 CNS and in the experiment with NCI-H23 lung were more than 100 µM and 45.3 µM, respectively.
Take `c1ccc(CN(Cn2cccn2)Cn2cccn2)nc1`: the TGI in the experiment on SW-620 colon, in the experiment with OVCAR-3 ovarian, in the experiment with KM12 colon, with LOX IMVI melanoma, with HOP-92 NSCLC and in the experiment on OVCAR-8 ovarian was more than 100 µM each time. Further, the TGI with SF-295 CNS and in the experiment with NCI-H23 lung was more than 100 µM in each case.
As to `Cc1ccc(Cl)c(NC(=O)C(=O)C(C(=O)c2ccncc2)C2OC(=O)c3ccccc32)c1` (centres undefined), the TGI in the experiment on SW-620 colon, with LOX IMVI melanoma, with HT29 colon, in the experiment on HOP-92 NSCLC, in the experiment on OVCAR-8 ovarian and in the experiment with SF-295 CNS was more than 100 µM in each case. Moreover, the TGI in the experiment on NCI-H23 lung was more than 100 µM.
For `Cc1cc(Cl)ccc1N=C1NC(=O)C(CC(=O)Nc2ccc(Cl)cc2Cl)S1` (centres undefined), the TGI in the experiment on SW-620 colon, in the experiment with OVCAR-3 ovarian, in the experiment on KM12 colon, with LOX IMVI melanoma, with HT29 colon and with OVCAR-8 ovarian was more than 100 µM in each case. Further, the TGI with SF-295 CNS and in the experiment with NCI-H23 lung was more than 100 µM each time.
In the case of `COC(=O)C1=C(CO)C2C=CC1C2` (centres undefined), the TGI in the experiment on SW-620 colon, with OVCAR-3 ovarian, in the experiment on KM12 colon, with LOX IMVI melanoma, in the experiment on HT29 colon and in the experiment on OVCAR-8 ovarian was more than 100 µM throughout. In addition, the TGI in the experiment on SF-295 CNS and in the experiment with NCI-H23 lung was more than 100 µM each time.
In the case of `O=C(Nc1c(O)[nH]c(=S)[nH]c1=O)c1ccc2ccccc2n1`, the TGI in the experiment on SW-620 colon, in the experiment with OVCAR-3 ovarian, with LOX IMVI melanoma, in the experiment on HT29 colon, with HOP-92 NSCLC and in the experiment on OVCAR-8 ovarian was more than 100 µM in each case. Moreover, the TGI in the experiment on SF-295 CNS and in the experiment on NCI-H23 lung was more than 100 µM throughout.
